The NIST ThermoML archive (doi:10.1016/j.jct.2014.03.021)
± gives the expanded uncertainty stated by the source.

What was measured:
[1] = refractive index (Na D-line) (dimensionless); conditions: 101.33 kPa, Liquid, Standard Abbe refractometry
[2] = 101.33 kPa, Liquid; for mass density: Vibrating tube method; for speed of sound: Sing-around technique in a fixed-path interferometer; for electrical conductivity: Alternating current cell with electrodes

Row | SMILES | refractive index ([1]; 293.15 K) | refractive index ([1]; 298.15 K) | refractive index ([1]; 303.15 K) | refractive index ([1]; 308.15 K) | refractive index ([1]; 313.15 K) | refractive index ([1]; 318.15 K) | refractive index ([1]; 323.15 K) | mass density ([2]; 293.15 K) [kg/m3] | mass density ([2]; 298.15 K) [kg/m3] | mass density ([2]; 303.15 K) [kg/m3] | mass density ([2]; 308.15 K) [kg/m3] | speed of sound ([2]; 313.15 K) [m/s] | mass density ([2]; 313.15 K) [kg/m3] | mass density ([2]; 318.15 K) [kg/m3] | speed of sound ([2]; 323.15 K) [m/s] | mass density ([2]; 323.15 K) [kg/m3] | also measured
1 | O [water] | 1.33299 ± 0.00031 | 1.33251 ± 0.00031 | 1.33197 ± 0.00031 | 1.33135 ± 0.00031 | 1.33065 ± 0.00031 | 1.3299 ± 0.00031 | 1.32911 ± 0.00031 | 998.738 ± 0.11 | 997.576 ± 0.11 | 996.181 ± 0.11 | 994.563 ± 0.11 | 1528.8 ± 1.2 | 992.744 ± 0.11 | 990.737 ± 0.11 | 1542.3 ± 1.2 | 988.556 ± 0.11 | 
2 | C[C@H](O)C(=O)[O-].C[N+](C)(C)CCO | 1.48146 ± 0.001 | 1.48056 ± 0.001 | 1.47931 ± 0.001 | 1.47808 ± 0.001 | 1.47676 ± 0.001 | 1.47544 ± 0.001 | 1.47418 ± 0.001 | 1143.46 ± 7.1 | 1140.3 ± 7.1 | 1137.16 ± 7 | 1134.04 ± 7 | 1859.1 ± 5.2 | 1130.94 ± 6.9 | 1127.86 ± 6.9 | 1831.1 ± 5.2 | 1124.79 ± 6.9 | electrical conductivity ([2]; 293.15 K): 0.0138 ± 0.00083 S/m; speed of sound ([2]; 293.15 K): 1935.6 ± 5.2 m/s; electrical conductivity ([2]; 298.15 K): 0.0219 ± 0.0013 S/m; speed of sound ([2]; 298.15 K): 1911.8 ± 5.2 m/s; electrical conductivity ([2]; 303.15 K): 0.0327 ± 0.002 S/m; speed of sound ([2]; 303.15 K): 1892 ± 5.2 m/s; electrical conductivity ([2]; 308.15 K): 0.0455 ± 0.0027 S/m; speed of sound ([2]; 308.15 K): 1874.8 ± 5.2 m/s; electrical conductivity ([2]; 313.15 K): 0.0647 ± 0.0039 S/m; electrical conductivity ([2]; 318.15 K): 0.0897 ± 0.0054 S/m; speed of sound ([2]; 318.15 K): 1844.8 ± 5.2 m/s; electrical conductivity ([2]; 323.15 K): 0.109 ± 0.0066 S/m
